# Assays:
# human ADAMTS-5 = human ADAMTS-5 (Homo sapiens (Human), UniProt Q9UNA0); conditions: read-out: hADAMTS-5 potency IC50
# Method: Finally, the fluorescence is read on the Envision (Perkin Elmer) after an incubation of 90 min at 37° C.
# human TACE = human TACE (Homo sapiens (Human), UniProt P78536); conditions: read-out: TACE potency IC50
# human TACE, sequence (P78536 whole entry, looked up, change not shown): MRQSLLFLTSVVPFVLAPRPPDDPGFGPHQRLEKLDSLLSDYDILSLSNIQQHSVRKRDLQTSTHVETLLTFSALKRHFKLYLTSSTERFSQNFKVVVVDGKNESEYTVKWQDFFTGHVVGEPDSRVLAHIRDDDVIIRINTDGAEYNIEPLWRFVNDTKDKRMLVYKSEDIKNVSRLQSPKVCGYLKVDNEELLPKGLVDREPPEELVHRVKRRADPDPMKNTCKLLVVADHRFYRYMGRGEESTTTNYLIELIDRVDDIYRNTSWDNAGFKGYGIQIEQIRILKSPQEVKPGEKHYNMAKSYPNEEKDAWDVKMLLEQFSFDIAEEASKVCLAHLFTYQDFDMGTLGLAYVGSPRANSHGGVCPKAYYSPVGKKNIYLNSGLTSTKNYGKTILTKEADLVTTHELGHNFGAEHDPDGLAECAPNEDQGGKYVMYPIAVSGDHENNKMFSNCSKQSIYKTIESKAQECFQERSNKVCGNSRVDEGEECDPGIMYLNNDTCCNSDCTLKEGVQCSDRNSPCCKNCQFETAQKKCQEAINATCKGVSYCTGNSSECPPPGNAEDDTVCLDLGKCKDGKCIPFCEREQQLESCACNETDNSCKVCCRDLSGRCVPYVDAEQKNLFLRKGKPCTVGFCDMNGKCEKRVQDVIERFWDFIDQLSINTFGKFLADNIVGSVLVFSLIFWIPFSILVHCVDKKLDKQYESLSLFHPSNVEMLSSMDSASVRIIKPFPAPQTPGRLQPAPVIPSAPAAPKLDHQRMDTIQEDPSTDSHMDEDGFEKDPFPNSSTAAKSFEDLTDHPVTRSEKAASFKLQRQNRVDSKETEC
# human ADAMTS-5, sequence (Q9UNA0 262-930): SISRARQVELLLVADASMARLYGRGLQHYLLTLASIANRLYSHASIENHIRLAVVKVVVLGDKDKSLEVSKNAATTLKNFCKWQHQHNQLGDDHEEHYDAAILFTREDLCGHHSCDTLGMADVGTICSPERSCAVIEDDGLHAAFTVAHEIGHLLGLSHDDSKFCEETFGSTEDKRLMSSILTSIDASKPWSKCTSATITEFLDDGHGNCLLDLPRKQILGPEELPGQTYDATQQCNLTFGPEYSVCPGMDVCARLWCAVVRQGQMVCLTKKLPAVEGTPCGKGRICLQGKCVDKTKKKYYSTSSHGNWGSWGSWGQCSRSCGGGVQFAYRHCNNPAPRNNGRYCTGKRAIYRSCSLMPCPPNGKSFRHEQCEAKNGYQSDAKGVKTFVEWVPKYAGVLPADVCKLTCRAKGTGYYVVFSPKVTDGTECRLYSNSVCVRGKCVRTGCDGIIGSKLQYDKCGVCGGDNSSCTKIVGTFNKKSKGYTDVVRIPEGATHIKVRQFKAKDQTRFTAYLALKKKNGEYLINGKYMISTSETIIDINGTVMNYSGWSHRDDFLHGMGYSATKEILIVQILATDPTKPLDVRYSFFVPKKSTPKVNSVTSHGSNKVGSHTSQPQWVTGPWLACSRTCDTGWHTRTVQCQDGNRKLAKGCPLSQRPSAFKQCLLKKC
Structure (SMILES),IC50 (human ADAMTS-5) [nM],IC50 (human TACE) [µM]
"CC(CC1(CCN)NC(=O)NC1=O)C(=O)N1CCN(c2ccc(F)c(F)c2)CC1 (stereo not drawn) [Cpd 241, 5-(2-aminoethyl)-5-[3-[4-(3,4-difluorophenyl)piperazin-1-yl]-2-methyl-3-oxo-propyl]imidazolidine-2,4-dione]",232,> 12
"C[C@H]1CN(C(=O)C(CO)CC2(C)NC(=O)NC2=O)CCN1c1cccc(F)c1 (stereo partly drawn) [Cpd 268, 5-[3-[(3S)-4-(3-fluorophenyl)-3-methyl-piperazin-1-yl]-2-(hydroxymethyl)-3-oxo-propyl]-5-methyl-imidazolidine-2,4-dione]",62,> 4
"C[C@H]1CN(C(=O)CCC2(C3CC3)NC(=O)NC2=O)CCN1c1cccnn1 (stereo partly drawn) [Cpd 302, 5-cyclopropyl-5-[3-(3S)-3-methyl-4-pyridazin-3-yl-piperazin-1-yl-3-oxo-propyl]imidazolidine-2,4-dione]",776,> 20
"C[C@H]1CN(C(=O)CCC2(C3CC3)NC(=O)NC2=O)CCN1c1cccc(-c2cnccn2)c1 (stereo partly drawn) [Cpd 372, S-Cyclopropyl-5-{3-[(S)-3-methyl-4-(3-pyrazin-2-yl-phenyl)-piperazin-1-yl]-3-oxo-propyl}-imidazolidine-2,4-dione]",2390,> 20
"C[C@@H](C[C@@]1(C2CC2)NC(=O)NC1=O)C(=O)N1CCN(c2cc(F)cc(-c3cn[nH]c3)c2)[C@@H](C)C1 [Cpd 379, 5-cyclopropyl-5-[3-[(3S)-4-[3-fluoro-5-(1H-pyrazol-4-yl)phenyl]-3-methyl-piperazin-1-yl]-2-methyl-3-oxo-propyl]imidazolidine-2,4-dione]",18,1.49
"CC(CC1(C2CN(C)C2)NC(=O)NC1=O)C(=O)N1CCN(c2ccc(F)c(F)c2)[C@@H](C)C1 (stereo partly drawn) [Cpd 399, 5-[3-[(3S)-4-(3,4-difluorophenyl)-3-methy-piperazin-1-yl]-2-methyl-3-oxo-propy]-5-(1-methylazetidin-3-yl)imidazolidine-2,4-dione]",163,
"Cc1cc(N2CCN(C(=O)CCC3(CC(=O)NCCO)NC(=O)NC3=O)CC2)ccc1Cl (stereo not drawn) [Cpd 402, 2-[4-[3-[4-(4-chloro-3-methyl-phenyl)piperazin-1-yl]-3-oxo-propyl]-2,5-dioxo-imidazolidin-4-yl]-N-(2-hydroxyethyl)acetamide]",732,
"CN(C)CCC1(CCC(=O)N2CCN(c3cccc(Cl)c3)CC2)NC(=O)NC1=O (stereo not drawn) [compound 44, 5-[3-[4-(3-chlorophenyl)piperazin-1-yl]-3-oxo-propyl]-5-(2-dimethylaminoethyl)imidazolidine-2,4-dione]",,> 20
"CNc1ccccc1N1CCN(C(=O)CCC2(C3CC3)NC(=O)NC2=O)CC1 (stereo not drawn) [compound 185, 5-cyclopropyl-5-[3-[4-[2-(methylamino)phenyl]piperazin-1-yl]-3-oxo-propyl]imidazolidine-2,4-dione]",> 4000,
"Cc1cc(Cl)c(F)cc1N1CCN(C(=O)CCC2(C)NC(=O)NC2=O)C[C@@H]1C (stereo partly drawn) [compound 202, 5-[3-[(3S)-4-(4-chloro-5-fluoro-2-methyl-phenyl)-3-methyl-piperazin-1-yl]-3-oxo-propyl]-5-methyl-imidazolidine-2,4-dione]",724,
"COCCOCC1(CC(C)C(=O)N2CCN(c3cc(Cl)cc(Cl)c3)[C@@H](C)C2)NC(=O)NC1=O (stereo partly drawn) [compound 221, 5-[3-[(3S)-4-(3,5-dichlorophenyl)-3-methyl-piperazin-1-yl]-2-methyl-3-oxo-propyl]-5-(2-methoxyethoxymethyl)imidazolidine-2,4-dione]",,3.2
"Cc1cc(CC(CC2(C)NC(=O)NC2=O)C(=O)N2CCN(c3cc(Cl)cc(Cl)c3)CC2)n(C)n1 (stereo not drawn) [compound 238, 5-[3-[4-(3,5-dichlorophenyl)piperazin-1-yl]-2-[(2,5-dimethylpyrazol-3-yl)methyl]-3-oxo-propyl]-5-methyl-imidazolidine-2,4-dione]",141,3.16
"CC(CC1(C2CN(C(=O)OC(C)(C)C)C2)NC(=O)NC1=O)C(=O)N1CCN(c2ccc(F)c(F)c2)[C@@H](C)C1 (stereo partly drawn) [compound 239, tert-butyl 3-[4-[3-[(3S)-4-(3,4-difluorophenyl)-3-methyl-piperazin-1-yl]-2-methyl-3-oxo-propyl]-2,5-dioxo-imidazolidin-4-yl]azetidine-1-carboxylate]",46,> 4
"CC(CC1(C2CNC2)NC(=O)NC1=O)C(=O)N1CCN(c2ccc(F)c(F)c2)CC1 (stereo not drawn) [compound 240, 5-(azetidin-3-yl)-5-[3-[4-(3,4-difluorophenyl)piperazin-1-yl]-2-methyl-3-oxo-propyl]imidazolidine-2,4-dione]",194,> 20
"CC(CC1(C)NC(=O)NC1=O)C(=O)N1C[C@@H](C)N(c2cc(Cl)cc(Cl)c2)[C@@H](C)C1 (stereo partly drawn) [compound 243, 5-[3-[(3R,5S)-4-(3,5-dichlorophenyl)-3,5-dimethyl-piperazin-1-yl]-2-methyl-3-oxo-propyl]-5-methyl-imidazolidine-2,4-dione]",> 3890,> 19.5
"CC(CC1(c2ccccn2)NC(=O)NC1=O)C(=O)N1CCN(c2ccc(F)c(Cl)c2)[C@@H](C)C1 (stereo partly drawn) [compound 245, 5-[3-[(3S)-4-(3-chloro-4-fluoro-phenyl)-3-methyl-piperazin-1-yl]-2-methyl-3-oxo-propyl]-5-(2-pyridyl)imidazolidine-2,4-dione]",17,
"CC(CC1(CN2CCOCC2)NC(=O)NC1=O)C(=O)N1CCN(c2cc(Cl)cc(Cl)c2)[C@@H](C)C1 (stereo partly drawn) [compound 246, 5-[3-[(3S)-4-(3,5-dichlorophenyl)-3-methyl-piperazin-1-yl]-2-methyl-3-oxo-propyl]-5-(morpholinomethyl)imidazolidine-2,4-dione]",114,> 19.5
"CC(=O)N1CC(C2(CC(C)C(=O)N3CCN(c4ccc(F)c(F)c4)CC3)NC(=O)NC2=O)C1 (stereo not drawn) [compound 248, 5-(1-acetylazetidin-3-yl)-5-[3-[4-(3,4-difluorophenyl)piperazin-1-yl]-2-methyl-3-oxo-propyl]imidazolidine-2,4-dione]",49,> 3.78
"CC(CC1(CN2CCC(F)(F)C2)NC(=O)NC1=O)C(=O)N1CCN(c2cc(Cl)cc(Cl)c2)CC1 (stereo not drawn) [compound 252, 5-[3-[4-(3,5-dichlorophenyl)piperazin-1-yl]-2-methyl-3-oxo-propyl]-5-[(3,3-difluoropyrrolidin-1-yl)methyl]imidazolidine-2,4-dione]",67,2.69
"CC(CC1(CN2CCC(F)(F)C2)NC(=O)NC1=O)C(=O)N1CCN(c2ccc(F)c(Cl)c2)[C@@H](C)C1 (stereo partly drawn) [compound 253, 5-[3-[(3S)-4-(3-chloro-4-fluoro-phenyl)-3-methyl-piperazin-1-yl]-2-methyl-3-oxo-propyl]-5-[(3,3-difuoropyrrolidin-1-yl)methyl]imidazolidine-2,4-dione]",35,> 20
"CC1(CC(CC#N)C(=O)N2CCN(c3cc(Cl)cc(Cl)c3)CC2)NC(=O)NC1=O (stereo not drawn) [compound 254, 4-[4-(3,5-dichlorophenyl)piperazin-1-yl]-3-[(4-methyl-2,5-dioxo-imidazolidin-4-yl)methyl]-4-oxo-butanenitrile]",71,1
"C[C@H]1CN(C(=O)CCC2(C3CC3)NC(=O)NC2=O)CCN1c1cc(Cl)ncn1 (stereo partly drawn) [compound 256, 5-[3-[(3S)-4-(6-chloropyrimidin-4-yl)-3-methyl-piperazin-1-yl]-3-oxo-propyl]-5-cyclopropyl-imidazolidine-2,4-dione]",1410,> 20
"Cc1c(Cl)cc(F)cc1N1CCN(C(=O)CCC2(C)NC(=O)NC2=O)CC1 (stereo not drawn) [compound 293, 5-[3-[4-(3-chloro-5-fluoro-2-methyl-phenyl)piperazin-1-yl]-3-oxo-propyl]-5-methyl-imidazolidine-2,4-dione]",294,
"C[C@H]1CN(C(=O)CCC2(C3CC3)NC(=O)NC2=O)CCN1c1ccc2ncsc2c1 (stereo partly drawn) [compound 305, 5-[3-[(3S)-4-(1,3-benzothiazol-6-yl)-3-methyl-piperazin-1-yl]-3-oxo-propyl]-5-cyclopropyl-imidazolidine-2,4-dione]",,> 20
"Cc1cc(N2CCN(C(=O)CC[C@@]3(C)NC(=O)NC3=O)CC2)cc(C)c1Cl [compound 401, (5R)-5-[3-[4-(4-chloro-3,5-dimethyl-phenyl)piperazin-1-yl]-3-oxo-propyl]-5-methyl-imidazolidine-2,4-dione]",1120,
"C[C@@H]1CN(C(=O)CC[C@@]2(C3CC3)NC(=O)NC2=O)CCN1c1cc(F)cc(F)c1 [compound 403, (5S)-5-cyclopropyl-5-[3-[(3R)-4-(3,5-difluorophenyl)-3-methyl-piperazin-1-yl]-3-oxo-propyl]imidazolidine-2,4-dione]",168,
"COCCOCC1(CC(C)C(=O)N2CCN(c3cc(Cl)cc(Cl)c3)[C@@H](C)C2)NC(=O)NC1=O (stereo partly drawn) [compound 426, 5-(3-((S)-4-(3,5-dichlorophenyl)-3-methylpiperazin-1-yl)-2-methyl-3-oxopropyl)-5-((2-methoxyethoxy)methyl)imidazolidine-2,4-dione]",110,
"CC(CC1(c2ccccn2)NC(=O)NC1=O)C(=O)N1CCN(c2ccc(F)c(Cl)c2)[C@@H](C)C1 (stereo partly drawn) [compound 437, 5-(3-((S)-4-(3-chloro-4-fluorophenyl)-3-methylpiperazin-1-yl)-2-methyl-3-oxopropyl)-5-(pyridin-2-yl)imidazolidine-2,4-dione]",17,
"Cc1cccc(C2(CCC(=O)N3CCN(c4ccc(Cl)c(Cl)c4)[C@@H](C)C3)NC(=O)NC2=O)n1 (stereo partly drawn) [compound 452, 5-[3-[(3S)-4-(3,4-dichlorophenyl)-3-methyl-piperazin-1-yl]-3-oxo-propyl]-5-(6-methyl-2-pyridyl)imidazolidine-2,4-dione]",23,
"C[C@H]1CN(C(=O)CCC2(c3ccccn3)NC(=O)NC2=O)CCN1c1ccc(F)c(Cl)c1 (stereo partly drawn) [compound 457, 5-[3-[(3S)-4-(3-chloro-4-fluoro-phenyl)-3-methyl-piperazin-1-yl]-3-oxo-propyl]-5-(2-pyridyl)imidazolidine-2,4-dione]",47,

# Source: patent US9926281B2 (priority 2014, dated 2018)
